{"source": "patent US20260041796A1", "about": "“REGULATION OF IMMUNE RESPONSES THROUGH SELECTIVE NEURAL ACTIVATION” (The Trustees of Columbia University in the City of New York, priority 2021, published 2026)", "molecules": {"B1": {"name": "IL-4: anti-inflammatory cytokine administered intraperitoneally (protein, UniProt P05112 25-153, looked up)", "Interleukin-4": "HKCDITLQEIIKTLNSLTEQKTLCTELTVTDIFAASKNTTEKETFCRAATVLRQFYSHHEKDTRCLGATAQQFHRHKQLIRFLKRLDRNLWGLAGLNSCPVKEANQSTLENFLERLKTIMREKYSKCSS"}}, "key": {"[1]": {"system": "caudal nucleus of the solitary tract (cNST)", "assay": "Fos induction in the brain after peripheral LPS immune challenge", "type": "in vivo", "conditions": "LPS stimulus vs saline control; c-fos as proxy for neural activity", "text": "Peripheral immune challenge evokes brain activities. LPS was used to induce an innate immune response and the brain was examined for the induction of c-fos as a proxy for neural activity. […] When the body experiences bacterial infections, the bacterial membrane component lipopolysaccharide (LPS) triggers strong innate immune response. LPS (right) but not saline control (left) strongly activates cNST (circled area). For each condition, a representative image from N>=3 animals is shown. Scale bar: 100 μm. Strong bilateral c-fos labeling was detected in the caudal nucleus of the solitary tract (cNST) in the brainstem.\nA brainstem circuit that functions as a conduit to convey peripheral immune information to the brain was identified. […] Using an activity marker (cFos induction), it was determined that a selective population of neurons in the brain are activated in response to administration of a peripheral immune insult.\n(§1) It was shown that neurons in the caudal nucleus of the solitary tract (cNST) in the brainstem are activated by peripheral (intraperitoneal) administration of LPS (lipopolysaccharide), a potent inducer of inflammatory responses (FIG. 5). […] Next, to uncover the role of these cNST neurons in immune responses, a chemogenetic silencer was introduced by genetic Trapping, and the effect of silencing these cNST neurons in the emergence of LPS-induced inflammatory responses was evaluated."}, "[2]": {"system": "LPS-TRAPed population in the cNST", "assay": "Blood cytokine levels after LPS with chemogenetic (DREADD) activation of LPS-TRAPed cNST neurons", "type": "in vivo", "procedure": "FIG. 12 illustrates the effect of neuronal stimulation in the caudal nucleus of the solitary tract on the immune response. […] Neuronal populations were chemogenetically activated with designer receptor exclusively activated by a designer drug (DREADD) while the animal is given LPS and cytokine levels in the blood were measured. In the control animals, LPS induced the strong release of pro-inflammatory TNFa, reaching 200 pg/ml in the peripheral blood. When this brainstem neuronal population was activated with DREADD, there was a remarkable suppression of pro-inflammatory cytokine release, resulting in 90% reduction in the TNFa in the blood. The same results were obtained for another proinflammatory cytokine, IL-6. In addition to suppressing the release of pro-inflammatory cytokines, activation of this neuronal population markedly increase the release of the anti-inflammatory cytokine, IL-10. Thus, this brain circuit triggers a strong anti-inflammatory response while suppressing pro-inflammatory cytokines. Note that under normal conditions (control) the immune insult triggers a very large induction of pro-inflammatory cytokines (TNFa; left panels), and this induction is suppressed by activation of the cNST neurons (compare bars). […]\nFIG. 19 illustrates that activating cNST-responsive neurons dramatically suppresses inflammatory responses. […] These neurons were artificially activated after LPS using a synthetic drug, CNO, and then cytokine levels in the circulation were analyzed in response to LPS.\nas §1, with “evaluated. […]” for “evaluated.”"}, "[3]": {"system": "caudal nucleus of the solitary tract (cNST)", "assay": "TRAP activity-based labelling of LPS-responsive neurons", "type": "in vivo", "conditions": "LPS-treated vs saline treated animals", "text": "The activity based labelling strategy, TRAP, was used to identify and access neuronal populations activated during LPS induced inflammation. Neurons TRAPed by LPS (right) but not saline control (left) are seen in the cNST (circled area). For each condition, a representative image from N>=3 animals is shown. Scale bar: 500 μm.\nas §1, with “5). […] In other words, the brain monitors and modulates immune responses in the body.” for “5).”"}, "vagal sensory neurons": {"system": "vagal sensory neurons", "assay": "In-vivo calcium imaging (GCaMP6s) of nodose ganglion after intraperitoneal cytokine", "conditions": "intraperitoneal injection; no response to saline or glucose", "procedure": "FIG. 7 illustrates a subset of neurons in the nodose ganglion that respond to pro-inflammatory cytokines. Calcium responses in vagal sensory neurons expressing the genetically encoded fluorescent calcium indicator GCaMP6s were imaged while administering cytokines intraperitoneally. The platform was modified to image the response of vagal sensory neurons to cytokines. The cytokine was administered via intraperitoneal injection and calcium activity in the nodose ganglion was monitored. Heat maps depicting z-score-normalized fluorescence traces from vagal neurons identified as responders of proinflammatory cytokine (TNFa). Neural activity was detected using an in-vivo calcium imaging platform with genetically encoded calcium indicator GCaMP6 expressed in all vagal sensory neurons. Each trial represents the activity of a single cell. […]\nFIG. 8 illustrates a subset of neurons in the nodose ganglion that respond to anti-inflammatory cytokines. Heat maps depicting z-score-normalized fluorescence traces from vagal neurons identified as responders of anti-inflammatory cytokines (IL-4). […] Neural activity was detected using an in-vivo calcium imaging platform with genetically encoded calcium indicator GCaMP6 expressed in all vagal sensory neurons. […] The cytokine was administered via intraperitoneal injection and calcium activity in the nodose ganglion was monitored. […]"}, "[4]": {"conditions": "TRAPed cNST neurons activated after LPS, cytokine levels in the circulation"}}, "data": [{"molecule": "lipopolysaccharide [LPS]", "values": [{"measurement": "Fos induction in the cNST", "setting": "[1]", "result": "Strong Fos induction"}, {"measurement": "TNFa in the peripheral blood", "setting": "[2]; control animals given LPS, no neuronal activation", "result": 200, "unit": "pg/mL"}, {"measurement": "labelling of cNST with fluorescence reporter (tdTomato)", "setting": "[3]", "result": "Strong labelling"}]}, {"molecule": "C[N+]1([O-])CCN(C2=Nc3cc(Cl)ccc3Nc3ccccc32)CC1", "note": "[CNO, clozapine N-oxide]", "values": [{"measurement": "levels of anti-inflammatory cytokines", "setting": "[2]; [4]", "result": "very large increase"}, {"measurement": "release of pro-inflammatory cytokines", "setting": "[2]; [4]", "result": "dramatic suppression"}]}, {"molecule": "TNFa", "values": [{"measurement": "calcium activity in a subset of vagal sensory neurons", "setting": "vagal sensory neurons", "result": "robust activity"}]}, {"molecule": "B1", "values": [{"measurement": "calcium activity in a subset of vagal sensory neurons", "setting": "vagal sensory neurons", "result": "robust activity"}]}]}
